Structures can show the parent of a compound that is named as a salt. Where two headings read alike, the source gives them in different places.
Key:
[1] = Straub tail test (Straub tail ED50), intraperitoneal, mice; parameters: species or system CF1S female mice; conditions: mouse, in vivo; for ED50 at 25 min: ip, mice, intraperitoneal, within 25 minutes after dosing, read-out: ED50^ST (Straub tail ED50)
Protocol: Narcotic analgesics produce in mice an erection and arching of the tail (90° or more) which is referable to spinal cord stimulation. This straub tail reaction is not produced by other analgesics, including the narcotic antagonists.
The method used was modified from Shemano, I., and Wendel, H., Tox. Appl. Pharm. 6, 334-9 (1964). CF1 S female mice (18-21 g), 10-20 mice per dose were injected intraperitoneally with log scaled doses of analgesic in 1% aqueous methylcellulose. A positive Straub tail response was recorded if a tail was erected 90° or more for 5 seconds at any time within 25 minutes after dosing. A quantal Straub tail ED50 was calculated by the moving average method. (Thompson, W. R., Bact. Rev. 11, 115-145 (1947).

[2] = tested on: mice (phenylquinone-induced writhing); assay: phenylquinone writhing test (analgesic ED50), oral, mice; format: in vivo, female white mice; conditions: Mus musculus, read-out: ED50 analgesia
Protocol: A standard procedure for detecting and comparing the analgesic activity of compounds in this series for which there is good correlation with human efficacy is the standard phenylquinone writhing test modified from Siegmund, et. at., Proc. Soc. Exp. Biol. Med. 95, 729 (1957). A test compound suspended in 1% methylcellulose was given orally to fasted (17-21 hours) female white mice, 5-20 animals per double blind test. Aqueous (0.01% phenyl-p-benzoquinone) phenylquinone was injected intraperitoneally at 24 minutes later using 0.20 ml per mouse. […] The effective analgesic dose for 50% of the mice (ED 50) was calculated by the moving average method of Thompson, W. R., Bact. Rev. 11, 115-145 (1947).

mice [3] = conditions: cited from earlier work
in vivo = conditions: mouse
mice [4] = conditions: cited from earlier work; remark: listed apart in the source
[5] = literature statement; cited from earlier work
[6] = Goodman & Gilman 1965; cited from earlier work
[7] = oral, Belgian Patent 802,557 compound

With `Cc1ccc(CCN2CC[C@]3(c4cccc(O)c4)CCCC[C@H]3C2)cc1` (relative stereo) [N-(p-methylphenethyl)-4a-(m-hydroxyphenyl)-trans-decahydroisoquinoline] the ED50 at 25 min [1] was 93 mg/kg, the selectivity ratio ([1]; ratio of Straub tail ED50 to analgesic ED50, read-out: ED50^ST /ED50^analgesia) was 46 and the ED50 [2] was 2 mg/kg.

For `COc1cccc([C@@]23CCCC[C@H]2CN(CCc2ccc(C)cc2)CC3)c1` (relative stereo) [N-(p-methylphenethyl)-4a-(m-methoxyphenyl)-trans-decahydroisoquinoline], the ED50 at 25 min [1] was 93 mg/kg and the ED50 [2] was 5.8 mg/kg.

For `Oc1cccc([C@@]23CCCC[C@H]2CN(CCc2ccccc2)CC3)c1` (relative stereo) [N-phenethyl-4a-(m-hydroxyphenyl)-trans-decahydroisoquinoline], the ED50^ST (mice [3]; [7]) is listed as 10 mg/kg, the selectivity ratio (in vivo; po) is listed as ~1 and the ED50^analgesia (mice [4]; [7]) is listed as 6.6 mg/kg.

Compound `Cc1ccc(CCN2CC[C@@]3(c4cccc(O)c4)CC(C)CC[C@@H]3C2)cc1` (stereo partly drawn) [N-(p-methylphenethyl)-4a-(m-hydroxyphenyl)-6-methyl-trans-decahydroisoquinoline] has an ED50 at 25 min [1] of 135 mg/kg and an ED50 [2] of 2 mg/kg.

In the case of `CN1CCC2(c3ccccc3)CCCCC2C1` (stereo not shown) [N-methyl-4a-phenyl-decahydroisoquinoline], the “analgesic activity” value [5] is given as “low analgesic activity”.

In the case of `COc1cccc([C@@]23CCN(CCc4ccc(C)cc4)C[C@H]2CCC(C)C3)c1` (stereo partly drawn) [N-p-methylphenethyl-4a-(m-methoxyphenyl)-6-methyl-trans-decahydroisoquinoline], the ED50 at 25 min [1] is reported as > 135 mg/kg and the ED50 [2] is reported as 8.7 mg/kg.

For `CC1C2Cc3ccc(O)cc3C1(C)CCN2CCc1ccccc1` (stereo not shown) [Phenzaocine hydrobromide], the “Straub tail ED50” value (mice [3]; mice, Shemano and Wendel 1964) is given as 0.5 mg/kg, the selectivity ratio (in vivo) is given as ~2.5 and the “analgesic ED50” value (mice [4]; mice, Shemano and Wendel 1964) is given as 0.2 mg/kg.

In the case of `CN1CC[C@]23c4c5ccc(O)c4O[C@H]2[C@@H](O)C=C[C@H]3[C@H]1C5` [morphine], the ED50^analgesia (mice [4]; morphine, background section) is listed as 5.6 mg/kg.

In the case of `CC1C2Cc3ccc(O)cc3C1(C)CCN2CCc1ccccc1` (stereo not shown) [phenazocine, 2'-hydroxy-5,9-dimethyl-2-phenethyl-6,7-benzomorphan], the “analgesic activity” value [5] is given as “potent analgesic” and the “morphine-like actions” value [6] is given as “produces the entire range of morphine-like actions, including respiratory depression, constipation, and physical dependence”.
